US20230021483A1, “[…] […] METHOD AND CLASSIFICATION OF PHARMACEUTICAL COMPONENTS BY USING TRANSCRIPTOMES” (National Institutes of Biomedical Innovation, Health and …, priority 2016, published 2023)
Peptide text beside a SMILES is read from it. * marks the point of attachment. X1 = CCCCCCCCCCCCCCCC(=O)OCC(C*)OC(=O)CCCCCCCCCCCCCCC; Palmitoyl = CCCCCCCCCCCCCCCC(=O)*

Columns and labels:
Assay type in all cases: in vivo, C57BL/6 mice
liver (LV) = test: Whole organ transcriptome (GeneChip microarray) of liver 6 h after adjuvant administration: sDEGs, hierarchical clustering; for adjuvant group (cluster) in LV: key: G1 (interferon signaling); G2 (metabolism of lipids and lipoproteins); G3 (response to stress); G4 (response to wounding); G5 (phosphate-containing compound metabolic process); G6 (phagosome); settings: liver; for Number of gene probes with statistically significant changes (sDEGs), LV, Down / Number of gene probes with statistically significant changes (sDEGs), LV, Up: i.d. administration, 6 h after adjuvant; for Number of gene probes with statistically significant changes (sDEGs), LV, Down: fold change <0.667, p<0.01, customized PA call=1; for Number of gene probes with statistically significant changes (sDEGs), LV, Up: fold change >1.5, p<0.01, customized PA call=1
spleen (SP) = test: Whole organ transcriptome (GeneChip microarray) of spleen 6 h after adjuvant administration: sDEGs, hierarchical clustering; for adjuvant group (cluster) in SP: key: G1 (interferon signaling); G2 (metabolism of lipids and lipoproteins); G3 (response to stress); G4 (response to wounding); G5 (phosphate-containing compound metabolic process); G6 (phagosome); settings: for Number of gene probes with statistically significant changes (sDEGs), SP, Down / Number of gene probes with statistically significant changes (sDEGs), SP, Up: i.d. administration; for Number of gene probes with statistically significant changes (sDEGs), SP, Down: fold change <0.667, p<0.01, customized PA call=1, 6 h after adjuvant; for Number of gene probes with statistically significant changes (sDEGs), SP, Up: fold change >1.5, p<0.01, customized PA call=1, 6 h after adjuvant
[1] = test system: inguinal lymph nodes (LN); test: Whole organ transcriptome (GeneChip microarray) of draining inguinal lymph nodes 6 h after adjuvant administration: sDEGs, gene modules, hierarchical clustering; for adjuvant group (cluster) in LN: key: G1 (interferon signaling); G2 (metabolism of lipids and lipoproteins); G3 (response to stress); G4 (response to wounding); G5 (phosphate-containing compound metabolic process); G6 (phagosome); settings: for Number of gene probes with statistically significant changes (sDEGs), LN, Down / Number of gene probes with statistically significant changes (sDEGs), LN, Up: i.d. administration, 6 h after adjuvant; for Number of gene probes with statistically significant changes (sDEGs), LN, Down: fold change <0.667, p<0.01, customized PA call=1; for Number of gene probes with statistically significant changes (sDEGs), LN, Up: fold change >1.5, p<0.01, customized PA call=1
LV, SP and LNs = test: Whole organ transcriptome across organs (adjuvant gene space): gene responses and adjuvant grouping; settings: hierarchical clustering; LV, SP and/or LNs
[2] = test system: preferentially upregulated genes in LV, SP, LN; test: Z-score-based differential gene expression analysis (adjuvant group- or adjuvant-associated genes, 40 module mapping, TargetMine annotation); settings: z-score selected genes; TargetMine and IPA upstream cytokine analyses
From the text: Each sample's FC value was converted into a z-score on a gene basis by using the entire data set for each organ. The Z-score of the triplicates of interest were summed for each adjuvant. For example, the three sample z-score in the LV sample following cdiGMP administration was summed on a gene-by-gene basis, after which the summed scores of >3 genes were selected as relatively preferentially expressed genes in the LV after cdiGMP administration. The following threshold was applied for selections. […] G2^LV: ALM_IP(z>1) & bCD(z>1) & ENDCN(z>1) & FCA(z>1). […] G4^LV: MALP2s(z>3). […] G2^SP: ENDCN_x2+ENDCN_x3(z>2) & ALM_IP(z>3) & bCD(z>3). […] G4^SP: ADX_ID_x2+ADX_ID_x3(z>2) & ADX_IP(z>3) & MALP2s(z>3). […] G2^LN: bCD(z>3) & FCA(z>3). […] G5^LN: K3(z>1.5) & K3SPG_x1+K3SPG_x2(z>1) & D35_x1+D35_x3(z>1). G6^LN: AddaVax(z>3).

circulating blood cells = test: Hematological cell count of peripheral blood 6 h after adjuvant administration (VetScan HMII); settings: mouse, in vivo
Protocol: Take about 200 μL of blood from the retro-orbital venous plexus with a non-heparinized capillary tube and place the blood into a 1.5 mL tube comprising 2 μL of 10% EDTA-2K for hematological testing. Thoroughly mix the sample by gentle tapping. Stored at room temperature until hematological testing.
The hematological cell count was found using VetScan HMII (Abaxis). 50 μl of EDTA-2K blood sample was diluted by adding 250 μl of saline. Measurements are taken with VetScan HMII by following the instruction.
In a preliminary experiment, FCA and ALM were tested at different points up to 72 hours. […] At 6 hours after adjuvant administration, LV, SP, and LN (both sides) were removed to study the gene expression thereof by using Affimetrix Genechip microarray system (Affymetrix). The sampled organs were each placed in a tube containing RNAlater. The tube was maintained at 4° C. overnight, and stored at −80° C. until use. Blood was also collected after 6 hours from adjuvant administration for general hematological testing. About 200 μL of blood was taken from the retro-orbital venous plexus with a non-heparinized capillary tube and placed into a 1.5 mL tube comprising 2 μL of 10% EDTA-2K for hematological testing. The hematological cell count was found using VetScan HMII (Abaxis). 50 μl of EDTA-2K blood sample was diluted by adding 250 μl of saline. Measurements were taken with VetScan HMII by following the instruction.
The effect of adjuvant administration with respect to the changes in several hematological parameters was investigated. The following parameters were studied: white blood cells (WBC), lymphocytes (LYM), monocytes (MON), granulocytes (GRA), relative (%) content of lymphocytes (LY %), relative (%) content of monocytes (MO %), relative (%) content of granulocytes (GR %), red blood cells (RBC), hemoglobins (Hb, HGB), hematocrits (HCT), mean corpuscular volume (MCV), mean corpuscular hemoglobins (MCH), mean corpuscular hemoglobin concentration (MCHC), red blood cell distribution width (RDW), platelets (PLT), platelet concentration (PCT), mean platelet volume (MPV), and platelet distribution width (PDW).

| Molecule | adjuvant group (cluster) in LV (liver (LV); hierarchical clustering) | Number of gene probes with statistically significant changes (sDEGs), LV, Down (liver (LV)) | Number of gene probes with statistically significant changes (sDEGs), LV, Up (liver (LV)) | adjuvant group (cluster) in SP (spleen (SP); hierarchical clustering) | Number of gene probes with statistically significant changes (sDEGs), SP, Down (spleen (SP)) | Number of gene probes with statistically significant changes (sDEGs), SP, Up (spleen (SP)) | module M40^LN (immune system process; dendritic cells, macrophages, neutrophils, stromal cells) ([1]; LN, 6 h) | adjuvant group (cluster) in LN ([1]; hierarchical clustering, lymph node) | Number of gene probes with statistically significant changes (sDEGs), LN, Down ([1]; lymph node) | Number of gene probes with statistically significant changes (sDEGs), LN, Up ([1]; lymph node) | adjuvant group (cluster) within the adjuvant gene space (LV, SP and LNs) | adjuvant group-associated biological features [2] | leukopenia (circulating blood cells) | lymphopenia (circulating blood cells) | monocytosis (monocytes in blood) (circulating blood cells) |
| --- | --- | --- | --- | --- | --- | --- | --- | --- | --- | --- | --- | --- | --- | --- | --- |
| Polyinosine-polycytidylic acid [PolyIC] | G1 | 1122 | 516 | G1 | 738 | 1360 | strongly induced | G1 | 1460 | 2203 | group (G) 1 | strongly associated with type I and type II interferon responses | caused leukopenia | strongly induced | – |
| Nc1nc2c(ncn2[C@@H]2O[C@@H]3COP(=O)(O)O[C@H]4[C@@H](O)[C@H](n5cnc6c(=O)[nH]c(N)nc65)O[C@@H]4COP(=O)(O)O[C@H]3[C@H]2O)c(=O)[nH]1 [cdlGMP] | – | 218 | 280 | – | 261 | 707 | – | – | 908 | 1579 | – | – | – | – | – |
| CCCCCCCCCCCCCCCC(=O)N[C@@H](CSCC(COC(=O)CCCCCCCCCCCCCCC)OC(=O)CCCCCCCCCCCCCCC)C(=O)N[C@@H](CO)C(=O)N[C@@H](CCCCN)C(=O)N[C@@H](CCCCN)C(=O)N[C@@H](CCCCN)C(=O)N[C@@H](CCCCN)C(=O)O (stereo partly drawn) [Pam3CSK4, Pam-3-Cys-Ser-Lys-Lys-Lys-Lys] (Palmitoyl-C(X1)SKKKK-OH) | – | – | – | – | – | – | – | – | – | – | – | – | – | – | clearly induced |
